Measured values: US20020028953A1, “Process for preparing 6-(4-chlorophenyl)-2,2-dimethyl-7-phenyl-2,3-dihydro-1H-pyrrolizin-5-yl-acetic acid” (Merckle GmbH, priority 2000, published 2002)
Where two headings read alike, the source gives them in different places.

Columns and labels:
[1] = stability of the solid form on drying, storage and aging; format: physicochemical
analgesic action = details: result in words
[2] = biological target: cyclooxygenase (CO) and lipoxygenase (LO); assay: inhibitory action on the enzymes cyclooxygenase (CO) and lipoxygenase (LO); format: biochemical

chemical stability / oxidative decomposition ([1]; listed as Polymorph A) | stability on drying and storage ([1]; solvates release solvent at room temperature) | IC50LO/IC50CO ([2]; ratio of IC50 lipoxygenase to IC50 cyclooxygenase) | cyclooxygenase and/or lipoxygenase inhibitor ([2]; result in words) | Structure (SMILES) | chemical stability / oxidative decomposition [1] | analgesic action (analgesic action)
– | – | – | – | CC1(C)Cc2c(-c3ccccc3)c(-c3ccc(Cl)cc3)c(CC(=O)O)n2C1 [amorphous ML 3000] | relatively severe oxidative decomposition | –
high chemical stability | stable on drying and storage | ~1 | potent | CC1(C)Cc2c(-c3ccccc3)c(-c3ccc(Cl)cc3)c(CC(=O)O)n2C1 [polymorph A, 6-(4-chlorophenyl)-2,2-dimethyl-7-phenyl-2,3-dihydro-1H-pyrrolizin-5-ylacetic Acid] | – | strong
